In patent EP1094711B1, “METHODS FOR ERADICATION OF NANOBACTERIA” (Nanobac Oy, priority 1998, dated 2000):
Structures can show the parent of a compound that is named as a salt.

Assays:
nanobacteria [1] = experiment: Antibiotic sensitivity test by Minimal Inhibition Concentration (MIC), 96-well plates, absorbance at 650 nm; format: cell-based; details: for antinanobacterial effect in the in vitro test (in words): in vitro MIC test; for MIC 50: 50% inhibition; for MIC 50 / MIC 90: DMEM with 10% gamma-irradiated FBS
Procedure: Antibiotic sensitivity tests were carried out by measuring Minimal Inhibition Concentration (MIC), a common practice in clinical microbiology.
The tests were performed in 96-well plates. DMEM (commercial cell culture medium) containing 10% gamma-irradiated fetal bovine serum (FBS)(dose about 3 Mrads; this treatment inactivates nanobacteria in the serum so that the basic medium is sterile) was used as the basic culture medium. These components are commercially available, e.g., from Gibco. The antibiotic stock solutions were sterile filtered through 0.2 micrometer filters. The stock solutions were then serially diluted (into the basal culture medium) to provide a final starting concentration of 0.5 mg/ml and 1:2 dilutions therefrom, unless otherwise specified. For each antibiotic three parallel tests were performed using all the antibiotic dilutions and, additionally, positive and negative control experiments. […] 100 µl of dilutions of the nanobacteria inoculum were added to all wells except the negative controls. The plates were incubated at mammalian cell culture conditions (37° Celsius, 5% carbon dioxide, 95% humid air). The absorbance values at 650 nm were recorded by using an ELISA reader at the start, and at 4, 8, 12, 14 days. […] Calculations were based on absorbance curves where absorbance was plotted against concentration of the antibiotic.

nanobacteria [2] = details: Kajander et al. 1997; cited from earlier work
nanobacteria [3] = experiment: Treatment of human patients infected with nanobacteria; details: person with chronic fatigue syndrome; 500 mg 4 times per day for one month; after one month therapy
nanobacteria [4] = experiment: Antibiotic sensitivity test by Minimal Inhibition Concentration (MIC), 96-well plates, absorbance at 650 nm; format: cell-based; details: culture medium, 37° Celsius
serum nanobacteria = experiment: Antibiotic sensitivity test of serum nanobacteria with cell culture antibiotics; format: cell-based; details: 100 µg/ml, one month, medium containing 10% fetal bovine serum
Procedure: Nanobacteria were cultured with 10% fetal bovine serum in DMEM medium (serum nanobacteria) for one month at 37°C in an atmosphere of 5% CO2 - 95% air. The cultures were harvested by centrifugation. For the autoclaving, UV, microwave, heating and drying treatments, the harvested nanobacteria were suspended in phosphate buffered saline (pH 7.4; PBS). After treatments, subculturing of the nanobacteria was made in 10% gamma irradiated fetal bovine serum in DMEM medium. The growth of serum nanobacteria was followed by light microscopy and absorbance measurement with a spectrophotometer at 650 nm.
The 1× concentrations are those recommended for cell culture. […]

nanobacteria [5] = experiment: Nanobacterial growth and biofilm formation on stents with metal ions in the culture medium; format: cell-based; details: salts added to the culture medium
Source text: Nanobacteria also absorb some heavy metals. Nanobacteria can be stained well with silver or copper compounds. […] Silver and copper parts or platings on surfaces, such as catheters or stents, can provide an antinanobacterial effect by preventing nanobacterial biofilm formation. In in vitro tests nanobacteria avidly formed biofilm on two different commercial stents made of a plastic type of material. This biofilm formation was prevented by the addition of silver or copper salts to the culture medium.

[6] = 90% inhibition, 12 day time point

| Compound | antinanobacterial effect in the in vitro test (in words) (nanobacteria [1]) | MIC 50 (nanobacteria [1]; 12 day time point) [µg/mL] | MIC 90 (nanobacteria [1]; [6]) [µg/mL] | further results |
| --- | --- | --- | --- | --- |
| O=C(O)CN(CCN(CC(=O)O)CC(=O)O)CC(=O)O [EDTA, ethylenediaminetetraacetic acid] | antinanobacterial effects | – | – | IC90 (nanobacteria [1]; 288 h, 90% inhibition, 12 day time point, read-out: MIC 90): 2500 µM; IC50 (nanobacteria [1]; 288 h, read-out: MIC 50): 300 µM; effect on growth of nanobacteria (nanobacteria [2]): inhibts growth |
| CN(C)[C@@H]1C(O)=C(C(N)=O)C(=O)[C@@]2(O)C(O)=C3C(=O)c4c(O)cccc4[C@@](C)(O)[C@H]3C[C@@H]12 [tetracycline HCl] | – | – | – | nanobacteria status of the patient (urine and serum samples) (nanobacteria [3]): nanobacteria negative |
| Doxycycline | effective on inhibiting nanobacterial growth | 50 | 80 | stability under the test conditions (nanobacteria [4]): not stable |
| Gentamycin | bacteriostatic effects at high antibiotic concentrations | 60 | 250 | morphology of nanobacteria in SEM (serum nanobacteria): changes in the morphology |
| silver | – | – | – | biofilm formation on commercial stents (nanobacteria [5]): prevented |
